From patent publication US20220064238A1, “Methods And Compositions For Modifying Transcription Factor Activity by Targeting The Human Mediator Complex Using Cell Penetrating Memetic Peptides And Methods of Treating Cancer Using The Same” (The Regents of the University of Colorado, a body corporate, priority 2020, published 2022)
Bridge positions count the residues as written; N and C are the ends. Square brackets hold non-standard residues; d marks the D form. Peptide text beside a SMILES is read from it. PEG6 = NCCOCCOCCOCCOCCOCCOCCC(=O)O; R8 = C=CCCCCCC[C@@](C)(N)C(=O)O; S5 = C=CCCC[C@](C)(N)C(=O)O

Experiments:
[1] = target: T1, p53-activated transcription (Gal4-p53AD, Mediator) (Homo sapiens, UniProt Q9NVC6); assay: In vitro transcription on naked DNA templates, p53-activated (+Gal4-p53AD); type: biochemical; conditions: 500 nM peptide
T1 construct: made in house
Description: To screen peptides for the ability to selectively block p53-dependent transcription, we required an assay that enabled p53-dependent activation but that could also support basal (i.e. activator-independent) transcription. The present inventors had previously established an in vitro transcription assay (using highly purified human factors (FIG. 1A). A key feature of this assay was that both activated and basal transcription could be reconstituted on naked DNA templates (i.e. DNA templates not assembled into chromatin). To adapt this assay for purposes of measuring basal vs. p53-activated transcription, we generated templates with Gal4 DNA binding sites upstream of the adenovirus major late promoter sequence (FIG. 5A, B). Upon titration of a Gal4 DNA Binding Domain (DBD)-p53 Activation Domain (AD; residues 1-70) fusion protein into this system, we observed pol II-dependent transcription that was dependent on p53AD and Mediator (FIG. 5C). Reactions containing Gal4-p53AD generally produced about two- to four-fold more transcripts compared to reactions with no activator (FIG. 5C). Because experiments without Gal4-p53AD produced a low level of “basal” transcription that could be quantitated, this system allowed assessment of both p53-activated and basal transcription. […]

[2] = system: pol II occupancy at the p21 locus; assay: ChIP of RNA polymerase II occupancy at CDKN1A (p21); type: cell-based; conditions: 3 h post-Nutlin, Ser5-phosphorylated pol II ChIP
Description: FIGS. 13A-B. Summary of ChIP experiments, showing that RNA polymerase II occupancy at the p53 target gene CDKN1A (p21) is reduced in cells treated with the bivalent peptide (peptide). A) Time course following Nutlin induction, to determine ideal time point to probe pol II occupancy at the p21 locus. […] However, pol II occupancy is reduced in cells treated with the bivalent peptide. […] Pol II phosphorylated at serine-5 of its C-terminal domain was used for ChIP analysis, because this is a proxy for initiating pol II at gene promoters (start sites). Data represent biological triplicates. Similar results were observed genome-wide, using ChIP-seq, although the timing of induction across p53 target genes will vary (data not shown).

SMILES: CC[C@H](C)[C@H](NC(=O)[C@H](CC(=O)O)NC(=O)[C@H](CC(=O)O)NC(=O)[C@@H]1CCCN1C(=O)[C@H](CO)NC(=O)[C@H](CC(C)C)NC(=O)CCOCCOCCOCCOCCOCCOCCNC(=O)[C@H](CCCNC(=N)N)NC(=O)[C@H](CCCNC(=N)N)NC(=O)[C@]1(C)CCCC=CCCCCCC[C@@](C)(NC(=O)[C@H](Cc2ccccc2)NC(=O)[C@H](CCCNC(=N)N)NC(=O)[C@H](CCC(=O)O)NC(=O)[C@H](CCC(N)=O)NC(=O)[C@H](CO)NC(=O)[C@H](CCCNC(=N)N)NC(C)=O)C(=O)N[C@@H](CC(=O)O)C(=O)N[C@@H](CC(C)C)C(=O)N[C@@H](Cc2c[nH]c3ccccc23)C(=O)N[C@@H](CCCCN)C(=O)N[C@@H](CCCNC(=N)N)C(=O)N[C@@H](CC(C)C)C(=O)N1)C(=O)N[C@@H](CCC(=O)O)C(=O)N[C@@H](CCC(N)=O)C(=O)N[C@@H](Cc1c[nH]c2ccccc12)C(=O)N[C@@H](Cc1ccccc1)C(=O)N[C@H](C(=O)N[C@@H](CCC(=O)O)C(=O)N[C@@H](CC(=O)O)C(N)=O)[C@@H](C)O [bivalent peptide] (Ac-RSQERF[R8]DLWKRL[S5]RR[PEG6]LSPDDIEQWFTED-NH2; staple 7-14; N-terminus assumed)
- inhibition of p53-activated transcription at 500 nM [1]: inhibited
- pol II occupancy at the p21 locus in peptide-treated cells [2]: reduced
